Measurements published in ChEMBL document CHEMBL2396590, “Inhibition of HIV-1 integrase dimerization and activity with crosslinked interfacial peptides” (Bioorg Med Chem, 2013).
Activity calls are given as the source filed them. The rule behind the calls is not given here. Starred links: 1 amine or outer side, 2 acyl side, 3 side chain; linkers in the order of their positions; H or OH if unused. Non-standard residues stand in square brackets, D forms with d. Residues, ends and D or L forms follow the SMILES beside them. NH(CH2)8CO = O=C(CCCCCCCCN[*:1])[*:2]; X1 = O=C(CN1CCN([*:1])CC1)[*:2]; X3 = O=C(CC1CCN([*:1])CC1)[*:2]; X4 = O=C(CCC(=O)[*:2])CN[*:1]; 12Ado = NCCCCCCCCCCCC(=O)O; AEEA = NCCOCCOCC(=O)O; Aoc = NCCCCCCCC(=O)O; Ahp = NCCCCCCC(=O)O; Ava = NCCCCC(=O)O

What was measured:
[1] = test system: Human immunodeficiency virus type 1 integrase (Human immunodeficiency virus 1), Q7ZJM1 [F185K,C280S]; experiment: Inhibition of HIV1 integrase F185K/C280S double mutant dimerization expressed in Escherichia coli BL21 (DE3) at 110 uM after 1 hr by PAGE analysis
[2] = target: Human immunodeficiency virus type 1 integrase (Human immunodeficiency virus 1, UniProt Q7ZJM1, C280S/F185K); experiment: Inhibition of HIV1 3'-processing activity of integrase F185K/C280S double mutant expressed in Escherichia coli BL21 (DE3)

Molecule | inhibition [1] | IC50 [2] [nM]
CC[C@H](C)[C@H](NC(=O)[C@H](CC(=O)O)NC(=O)[C@@H](NC(=O)[C@H](C)NC(=O)[C@@H](NC(=O)[C@@H](NC(=O)[C@H](CC(=O)O)NC(=O)[C@@H](NC(=O)[C@@H](NC(=O)[C@H](CCCNC(=N)N)NC(=O)[C@H](CCC(=O)O)NC(=O)CNC(=O)[C@H](C)NC(=O)COCCOCCNC(=O)[C@H](CCCNC(=N)N)NC(=O)[C@H](CCCCN)NC(=O)[C@H](Cc1ccccc1)NC(=O)[C@H](CC(N)=O)NC(=O)[C@H](Cc1cnc[nH]1)NC(=O)[C@@H](NC(=O)[C@H](Cc1ccccc1)NC(=O)[C@@H](NC(=O)[C@H](C)NC(=O)[C@H](CCSC)NC(=O)[C@H](CCC(N)=O)NC(=O)[C@@H](NC(=O)[C@H](C)NC(=O)[C@@H](NC(=O)[C@H](CCCCN)NC(=O)[C@H](CC(C)C)NC(=O)[C@@H](N)Cc1cnc[nH]1)[C@@H](C)O)C(C)C)C(C)C)[C@@H](C)CC)[C@@H](C)CC)C(C)C)[C@@H](C)CC)[C@@H](C)CC)[C@@H](C)O)C(=O)N[C@@H](CCC(N)=O)C(N)=O (H-HLKTAVQMAVFIHNFKR[AEEA]AGERIVDIIATDIQ-NH2) | Active | 1070
CC[C@H](C)[C@H](NC(=O)[C@H](CC(=O)O)NC(=O)[C@@H](NC(=O)[C@H](C)NC(=O)[C@@H](NC(=O)[C@@H](NC(=O)[C@H](CC(=O)O)NC(=O)[C@@H](NC(=O)[C@@H](NC(=O)[C@H](CCCNC(=N)N)NC(=O)[C@H](CCC(=O)O)NC(=O)CNC(=O)[C@H](C)NC(=O)CC1CCN(C(=O)[C@H](CCCNC(=N)N)NC(=O)[C@H](CCCCN)NC(=O)[C@H](Cc2ccccc2)NC(=O)[C@H](CC(N)=O)NC(=O)[C@H](Cc2cnc[nH]2)NC(=O)[C@@H](NC(=O)[C@H](Cc2ccccc2)NC(=O)[C@@H](NC(=O)[C@H](C)NC(=O)[C@H](CCSC)NC(=O)[C@H](CCC(N)=O)NC(=O)[C@@H](NC(=O)[C@H](C)NC(=O)[C@@H](NC(=O)[C@H](CCCCN)NC(=O)[C@H](CC(C)C)NC(=O)[C@@H](N)Cc2cnc[nH]2)[C@@H](C)O)C(C)C)C(C)C)[C@@H](C)CC)CC1)[C@@H](C)CC)C(C)C)[C@@H](C)CC)[C@@H](C)CC)[C@@H](C)O)C(=O)N[C@@H](CCC(N)=O)C(N)=O (H-HLKTAVQMAVFIHNFKR[X3]AGERIVDIIATDIQ-NH2) | Active | 570
CC[C@H](C)[C@H](NC(=O)[C@H](CC(=O)O)NC(=O)[C@@H](NC(=O)[C@H](C)NC(=O)[C@@H](NC(=O)[C@@H](NC(=O)[C@H](CC(=O)O)NC(=O)[C@@H](NC(=O)[C@@H](NC(=O)[C@H](CCCNC(=N)N)NC(=O)[C@H](CCC(=O)O)NC(=O)CNC(=O)[C@H](C)NC(=O)CN1CCN(C(=O)[C@H](CCCNC(=N)N)NC(=O)[C@H](CCCCN)NC(=O)[C@H](Cc2ccccc2)NC(=O)[C@H](CC(N)=O)NC(=O)[C@H](Cc2cnc[nH]2)NC(=O)[C@@H](NC(=O)[C@H](Cc2ccccc2)NC(=O)[C@@H](NC(=O)[C@H](C)NC(=O)[C@H](CCSC)NC(=O)[C@H](CCC(N)=O)NC(=O)[C@@H](NC(=O)[C@H](C)NC(=O)[C@@H](NC(=O)[C@H](CCCCN)NC(=O)[C@H](CC(C)C)NC(=O)[C@@H](N)Cc2cnc[nH]2)[C@@H](C)O)C(C)C)C(C)C)[C@@H](C)CC)CC1)[C@@H](C)CC)C(C)C)[C@@H](C)CC)[C@@H](C)CC)[C@@H](C)O)C(=O)N[C@@H](CCC(N)=O)C(N)=O (H-HLKTAVQMAVFIHNFKR[X1]AGERIVDIIATDIQ-NH2) | Active | 460
H-HLKTAVQMAVFIHNFKRKGGIGGYSAGERIVDIIATDIQ-NH2 | Active | 1700
CC[C@H](C)[C@H](NC(=O)[C@H](CC(=O)O)NC(=O)[C@@H](NC(=O)[C@H](C)NC(=O)[C@@H](NC(=O)[C@@H](NC(=O)[C@H](CC(=O)O)NC(=O)[C@@H](NC(=O)[C@@H](NC(=O)[C@H](CCCNC(=N)N)NC(=O)[C@H](CCC(=O)O)NC(=O)CNC(=O)[C@H](C)NC(=O)CCCCCCNC(=O)[C@H](CCCNC(=N)N)NC(=O)[C@H](CCCCN)NC(=O)[C@H](Cc1ccccc1)NC(=O)[C@H](CC(N)=O)NC(=O)[C@H](Cc1cnc[nH]1)NC(=O)[C@@H](NC(=O)[C@H](Cc1ccccc1)NC(=O)[C@@H](NC(=O)[C@H](C)NC(=O)[C@H](CCSC)NC(=O)[C@H](CCC(N)=O)NC(=O)[C@@H](NC(=O)[C@H](C)NC(=O)[C@@H](NC(=O)[C@H](CCCCN)NC(=O)[C@H](CC(C)C)NC(=O)[C@@H](N)Cc1cnc[nH]1)[C@@H](C)O)C(C)C)C(C)C)[C@@H](C)CC)[C@@H](C)CC)C(C)C)[C@@H](C)CC)[C@@H](C)CC)[C@@H](C)O)C(=O)N[C@@H](CCC(N)=O)C(N)=O (H-HLKTAVQMAVFIHNFKR[Ahp]AGERIVDIIATDIQ-NH2) | Active | 910
CC[C@H](C)[C@H](NC(=O)[C@H](CC(=O)O)NC(=O)[C@@H](NC(=O)[C@H](C)NC(=O)[C@@H](NC(=O)[C@@H](NC(=O)[C@H](CC(=O)O)NC(=O)[C@@H](NC(=O)[C@@H](NC(=O)[C@H](CCCNC(=N)N)NC(=O)[C@H](CCC(=O)O)NC(=O)CNC(=O)[C@H](C)NC(=O)CCCCCCCNC(=O)[C@H](CCCNC(=N)N)NC(=O)[C@H](CCCCN)NC(=O)[C@H](Cc1ccccc1)NC(=O)[C@H](CC(N)=O)NC(=O)[C@H](Cc1cnc[nH]1)NC(=O)[C@@H](NC(=O)[C@H](Cc1ccccc1)NC(=O)[C@@H](NC(=O)[C@H](C)NC(=O)[C@H](CCSC)NC(=O)[C@H](CCC(N)=O)NC(=O)[C@@H](NC(=O)[C@H](C)NC(=O)[C@@H](NC(=O)[C@H](CCCCN)NC(=O)[C@H](CC(C)C)NC(=O)[C@@H](N)Cc1cnc[nH]1)[C@@H](C)O)C(C)C)C(C)C)[C@@H](C)CC)[C@@H](C)CC)C(C)C)[C@@H](C)CC)[C@@H](C)CC)[C@@H](C)O)C(=O)N[C@@H](CCC(N)=O)C(N)=O (H-HLKTAVQMAVFIHNFKR[Aoc]AGERIVDIIATDIQ-NH2) | Active | 680
CC[C@H](C)[C@H](NC(=O)[C@H](CC(=O)O)NC(=O)[C@@H](NC(=O)[C@H](C)NC(=O)[C@@H](NC(=O)[C@@H](NC(=O)[C@H](CC(=O)O)NC(=O)[C@@H](NC(=O)[C@@H](NC(=O)[C@H](CCCNC(=N)N)NC(=O)[C@H](CCC(=O)O)NC(=O)CNC(=O)[C@H](C)NC(=O)CCC(=O)CNC(=O)[C@H](CCCNC(=N)N)NC(=O)[C@H](CCCCN)NC(=O)[C@H](Cc1ccccc1)NC(=O)[C@H](CC(N)=O)NC(=O)[C@H](Cc1cnc[nH]1)NC(=O)[C@@H](NC(=O)[C@H](Cc1ccccc1)NC(=O)[C@@H](NC(=O)[C@H](C)NC(=O)[C@H](CCSC)NC(=O)[C@H](CCC(N)=O)NC(=O)[C@@H](NC(=O)[C@H](C)NC(=O)[C@@H](NC(=O)[C@H](CCCCN)NC(=O)[C@H](CC(C)C)NC(=O)[C@@H](N)Cc1cnc[nH]1)[C@@H](C)O)C(C)C)C(C)C)[C@@H](C)CC)[C@@H](C)CC)C(C)C)[C@@H](C)CC)[C@@H](C)CC)[C@@H](C)O)C(=O)N[C@@H](CCC(N)=O)C(N)=O (H-HLKTAVQMAVFIHNFKR[X4]AGERIVDIIATDIQ-NH2) | Active | 430
CC[C@H](C)[C@H](NC(=O)[C@H](CC(=O)O)NC(=O)[C@@H](NC(=O)[C@H](C)NC(=O)[C@@H](NC(=O)[C@@H](NC(=O)[C@H](CC(=O)O)NC(=O)[C@@H](NC(=O)[C@@H](NC(=O)[C@H](CCCNC(=N)N)NC(=O)[C@H](CCC(=O)O)NC(=O)CNC(=O)[C@H](C)NC(=O)CCCCCCCCCCCNC(=O)[C@H](CCCNC(=N)N)NC(=O)[C@H](CCCCN)NC(=O)[C@H](Cc1ccccc1)NC(=O)[C@H](CC(N)=O)NC(=O)[C@H](Cc1cnc[nH]1)NC(=O)[C@@H](NC(=O)[C@H](Cc1ccccc1)NC(=O)[C@@H](NC(=O)[C@H](C)NC(=O)[C@H](CCSC)NC(=O)[C@H](CCC(N)=O)NC(=O)[C@@H](NC(=O)[C@H](C)NC(=O)[C@@H](NC(=O)[C@H](CCCCN)NC(=O)[C@H](CC(C)C)NC(=O)[C@@H](N)Cc1cnc[nH]1)[C@@H](C)O)C(C)C)C(C)C)[C@@H](C)CC)[C@@H](C)CC)C(C)C)[C@@H](C)CC)[C@@H](C)CC)[C@@H](C)O)C(=O)N[C@@H](CCC(N)=O)C(N)=O (H-HLKTAVQMAVFIHNFKR[12Ado]AGERIVDIIATDIQ-NH2) | Active | 1300
CC[C@H](C)[C@H](NC(=O)[C@H](CC(=O)O)NC(=O)[C@@H](NC(=O)[C@H](C)NC(=O)[C@@H](NC(=O)[C@@H](NC(=O)[C@H](CC(=O)O)NC(=O)[C@@H](NC(=O)[C@@H](NC(=O)[C@H](CCCNC(=N)N)NC(=O)[C@H](CCC(=O)O)NC(=O)CNC(=O)[C@H](C)NC(=O)CCCCCCCCNC(=O)[C@H](CCCNC(=N)N)NC(=O)[C@H](CCCCN)NC(=O)[C@H](Cc1ccccc1)NC(=O)[C@H](CC(N)=O)NC(=O)[C@H](Cc1cnc[nH]1)NC(=O)[C@@H](NC(=O)[C@H](Cc1ccccc1)NC(=O)[C@@H](NC(=O)[C@H](C)NC(=O)[C@H](CCSC)NC(=O)[C@H](CCC(N)=O)NC(=O)[C@@H](NC(=O)[C@H](C)NC(=O)[C@@H](NC(=O)[C@H](CCCCN)NC(=O)[C@H](CC(C)C)NC(=O)[C@@H](N)Cc1cnc[nH]1)[C@@H](C)O)C(C)C)C(C)C)[C@@H](C)CC)[C@@H](C)CC)C(C)C)[C@@H](C)CC)[C@@H](C)CC)[C@@H](C)O)C(=O)N[C@@H](CCC(N)=O)C(N)=O (H-HLKTAVQMAVFIHNFKR[NH(CH2)8CO]AGERIVDIIATDIQ-NH2) | Active | 720
H-AGERIVDIIATDIQ-NH2 |  | 3000
H-HLKTAVQMAVFIHNFKR-OH |  | 2000
CC[C@H](C)[C@H](NC(=O)[C@H](CC(=O)O)NC(=O)[C@@H](NC(=O)[C@H](C)NC(=O)[C@@H](NC(=O)[C@@H](NC(=O)[C@H](CC(=O)O)NC(=O)[C@@H](NC(=O)[C@@H](NC(=O)[C@H](CCCNC(=N)N)NC(=O)[C@H](CCC(=O)O)NC(=O)CNC(=O)[C@H](C)NC(=O)CCCCNC(=O)[C@H](CCCNC(=N)N)NC(=O)[C@H](CCCCN)NC(=O)[C@H](Cc1ccccc1)NC(=O)[C@H](CC(N)=O)NC(=O)[C@H](Cc1cnc[nH]1)NC(=O)[C@@H](NC(=O)[C@H](Cc1ccccc1)NC(=O)[C@@H](NC(=O)[C@H](C)NC(=O)[C@H](CCSC)NC(=O)[C@H](CCC(N)=O)NC(=O)[C@@H](NC(=O)[C@H](C)NC(=O)[C@@H](NC(=O)[C@H](CCCCN)NC(=O)[C@H](CC(C)C)NC(=O)[C@@H](N)Cc1cnc[nH]1)[C@@H](C)O)C(C)C)C(C)C)[C@@H](C)CC)[C@@H](C)CC)C(C)C)[C@@H](C)CC)[C@@H](C)CC)[C@@H](C)O)C(=O)N[C@@H](CCC(N)=O)C(N)=O (H-HLKTAVQMAVFIHNFKR[Ava]AGERIVDIIATDIQ-NH2) |  | 3750
